# Source: patent US20090142363A1, “CYTOTOXIC T-CELL EPITOPE PEPTIDE AND USE THEREOF” (priority 2005, published 2009)
# No end group written: not given here.
# What was measured:
# [1] = system: PBMCs of healthy adults reactive to the anti-HLA-A*24 antibody; assay: Induction of specific CTLs from PBMCs, method for quantifying cells producing intracellular IFNγ; type: cell-based, human; parameters: key to specific CTL induction, cytokine quantification method: ∘: “open circle” indicates that the use of a candidate peptide enabled specific CTLs to be induced; x: “cross” indicates that specific CTLs was unable to be induced; conditions: for peptide-specific cytokine production in PBMCs derived from ten people with HLA-A*24 molecule: summary of Table 2; for CD8-positive, IFNγ-positive cells in UR: HIV peptides added for restimulation as negative control
# Procedure: This induction method induces CTLs by adding peptides to culture media of PBMCs. Peptides are presented on antigen-presenting cells present among PBMCs, such as dendritic cells, B cells, macrophages, and certain types of T cells, whereby CTL precursor cells in PBMCs are stimulated to proliferate.
# Peripheral blood collected from healthy adults that were reactive to the anti-HLA-A*24 antibody was centrifuged at 3,000 rpm for 5 to 10 minutes. The resulting supernatant plasma was collected. The non-plasma portion was processed according to a conventional method to isolate PBMCs. The characteristic of the present method is the addition of several % of plasma to an induction medium. In the present invention, a favorable result was obtained by adding 5% plasma. The medium is prepared by adding appropriate additives and antibiotics to a medium commonly used for cell culture. The CTL induction medium used in the present invention was RPMI1640 Hepes modify (Sigam) supplemented with 2-mercapotethanol, L-glutamine, and the antibiotics streptomycin and penicillin. In addition to these, insulin, transferrin, selenious acid, pyruvic acid, human serum albumin, solution of non-essential amino acids, and the like may be added. 1 to 3×10^6 PBMCs were suspended in 1 to 2.5 ml of the culture medium. A candidate peptide was added to the cells at a concentration of 1 to 20 μg/ml. The concentration of peptide can be altered depending on the solubility of the peptide. The peptide was added at 10 μg/ml. After two days, IL-2 was added at a final concentration of 20 to 100 U/ml. Round-bottomed culture dishes that allow the exchange of carbon dioxide gas are preferably used to co-culture PBMCs with peptides. In the context of the present invention, 14-ml round-bottomed polypropylene tubes (Becton Dikinson) or 96-well U-bottomed cell culture microtest plates (Becton Dikinson) were used. The adenovirus-specific CTLs were confirmed after about two and four weeks of culture. The cells were stimulated again with the peptide at 10 μg/ml after about two weeks of culture. When the induction of adenovirus-specific CTLs was confirmed, the cells were further stimulated with peptide-pulsed antigen-presenting cells to establish CTL lines.
# Approximately 1/10 to all of the cells induced by the above-described method were transferred into 96-well U-bottomed cell culture microtest plates, and the peptide used for the induction was added thereto at a final concentration of 0.01 to 0.05 μg/ml. Then, an intracellular protein transport inhibitor (for example, brefeldin A, monensin, or such) was added, and the cells were cultured in a 5% CO2 incubator at 37° C. for 5 to 16 hours. After culture, the cells were washed, and phycoerythrin (PE)-labeled MHC-tetramer reagent and phycoerythrin-Cy5(PC5)-labeled CD8 antibody (Beckman Coulter) were added thereto. The resulting mixture was allowed to stand at room temperature for 15 to 30 minutes. After washing, the cells were fixed with 4% formaldehyde at 4° C. for 15 minutes and washed with an excess amount of washing solution. After membrane permeabilization treatment with 0.1% saponin, an FITC-labeled anti-IFNγ antibody (Beckman Coulter) was added, and reacted at room temperature for 15 to 30 minutes. After washing, the proportion of IFNγ-positive cells in T cells or MHC-tetramer reagent-positive cells was determined using a flow cytometer.
# PBMCs derived from ten people with HLA-A*24 molecule were tested using 10 types of peptides. […] Thus, these six types of candidate epitope peptides serve as adenovirus-specific CTL epitope peptides. Since the adenovirus-specific CTL epitope peptides have the HLA-A*24-binding motif, they are likely to be HLA-A*2402-restricted epitope peptides, which are carried by 60% or more of the Japanese people. In the context of the results described above, MHC-tetramer reagents were synthesized using five types of epitope peptides, and their utility was tested.
# [2] = system: peripheral blood / PBMCs / peptide-induced CTL lines of HLA-A*24 donors; assay: Staining of peripheral blood, PBMCs or peptide-induced CTL lines with MHC-tetramer reagents; type: cell-based, human; conditions: for profile of tetramer-positive cells: donor ID*24-12, peptide-induced cells
# Procedure: MBL Co. where the present inventors are affiliated with has acquired exclusive patent licensing rights in Japan for MHC-tetramer reagents (U.S. Pat. No. 5,635,363; French Application No. FR9911133; and U.S. Pat. Nos. 5,723,584, 5,874,239, 5,932,433, and 6,265,552) from Beckman Coulter Co. Based on the patents, PE-labeled MHC-tetramer reagents were prepared using adenovirus-specific CTL epitope peptides and HLA-A*2402 molecules.
# Adenovirus-specific CTLs quantification was carried out using MHC-tetramer reagents that was prepared using CTL epitope peptides of the present invention, with peripheral blood, PBMCs isolated from peripheral blood, CTL lines induced using CTL epitope peptides as samples. Examples of quantification using PE-labeled MHC-tetramer reagents are described below. Labelling dyes may be used in an appropriate combination depending on the type of flow cytometer to be used, and is not limited to the examples described below.
# Ten μl of a PE-labeled MHC-tetramer reagent, 20 μl of an FITC-labeled antibody for T cell (for example, CD8, CD4, or CD3), and such were added to 200 μl of collected peripheral blood. A CD45 antibody labeled with PC5 or such may also be added to eliminate nonspecific fluorescence due to contaminated erythrocytes. After gentle mixing, the mixture was allowed to stand at room temperature for 30 minutes. OptiLyse B was added, and erythrolysis and fixation was carried out according to the manufacturer's protocol. Two ml of PBS was added, stirred, and the cells were centrifuged at 400×g for 5 minutes. After the supernatant was removed by aspiration, the cells were resuspended in 500 μl of PBS and analyzed using a flow cytometer within 24 hours.
# Ten μl of a PE-labeled MHC-tetramer reagent, 20 μl of an FITC-labeled T cell surface antibody (for example, CD8, CD4, or CD3), and such were added to an appropriate amount of PBMCs (10^5 to 10^6 cells) or a CTL line induced by use of CTL epitope peptides. A CD45 antibody labeled with PC5 or such may also be added to eliminate nonspecific fluorescence due to contaminated erythrocytes. After gentle mixing, the cells were allowed to stand at room temperature for 30 minutes. Three ml of PBS was added, stirred, and the cells were centrifuged at 400×g for 5 minutes. After the supernatant was removed by aspiration, the cells were resuspended in 500 μl of PBS. When a CTL line is used, 7-AAD Viability Dye (Non-viable cell detection reagent; MBL Co.) may be added to eliminate nonspecific fluorescence caused by non-viable cells. The cells were analyzed using a flow cytometer within 24 hours.
# The results of staining obtained using the five types of MHC-tetramer reagents used to prepare the peptide-induced CTL lines are shown in FIG. 5.
# [3] = PBMCs from donor ID*24-14 after 24 days of stimulation with LYA
Substance,"specific CTL induction, cytokine quantification method ([1]; donor ID *24-1)","specific CTL induction, cytokine quantification method ([1]; donor ID *24-2)","specific CTL induction, cytokine quantification method ([1]; donor ID *24-3)","specific CTL induction, cytokine quantification method ([1]; donor ID *24-5)","specific CTL induction, cytokine quantification method ([1]; donor ID *24-8)","specific CTL induction, cytokine quantification method ([1]; donor ID *24-10)","specific CTL induction, cytokine quantification method ([1]; donor ID *24-11)","specific CTL induction, cytokine quantification method ([1]; donor ID *24-12)","specific CTL induction, cytokine quantification method ([1]; donor ID *24-13)","specific CTL induction, cytokine quantification method ([1]; donor ID *24-14)",also measured
DYLSAANML,∘,∘,x,x,x,∘,x,∘,x,x,"CD8-positive, IFNγ-positive (producing) cells in UR ([1]; donor *24-12, restimulation with the same peptide as used in the induction, % in PBMCs): 0.49%; specific CTL induction confirmed by CD8-positive, IFNγ-positive cells versus HIV peptide ([1]; donor ID*24-12, FIG. 3e-h): specific CTL induction was confirmed; peptide-specific cytokine production in PBMCs derived from ten people with HLA-A*24 molecule [1]: induce cytokine production in a peptide-specific manner; number of persons with peptide-specific IFNγ production / CTL induction ([1]; ten persons tested): four of the ten persons"
GYKDRMYSF,x,x,x,x,∘,x,x,x,x,x,"specific CTL induction confirmed by CD8-positive, IFNγ-positive cells versus HIV peptide ([1]; donor ID*24-8, FIG. 3a-d): induced specific CTLs; peptide-specific cytokine production in PBMCs derived from ten people with HLA-A*24 molecule [1]: induce cytokine production in a peptide-specific manner"
HLA-A*2402 DYLSAANML (Seq Id No: 1) Tetramer Reagent [DYL-Tet],,,,,,,,,,,profile of tetramer-positive cells [2]: no relevant profile
HLA-A*2402 LYANSAHAL (Seq Id No: 2) Tetramer Reagent [LYA-Tet],,,,,,,,,,,"CD3-positive, LYA-Tet-positive cells [2, 3]: 1.13%; CD4-positive, LYA-Tet-positive cells [2, 3]: 0.09%; CD8-positive, LYA-Tet-positive cells [2, 3]: 0.18%; population of CD8-negative, tetramer reagent-positive cells in the UL ([2]; peptide-induced CTL lines, FIG. 5, VYS-Tet: donor ID*24-1, *24-3, *24-11, *24-12, *24-14): detected"
HLA-A*2402 LYSNVALYL (Seq Id No: 5) Tetramer Reagent [LYS-Tet],,,,,,,,,,,profile of tetramer-positive cells [2]: no relevant profile
KYTPSNVTL,x,x,x,x,x,x,x,x,x,x,
NYIGFRDNF,x,x,x,x,x,x,x,x,x,x,
NYNIGYQGF,x,x,x,x,x,x,x,x,x,x,
"RYLRDQQLL [HIV peptide, reference compound]",,,,,,,,,,,"CD8-positive, IFNγ-positive cells in UR ([1]; donor *24-8): 0.62%; CD8-positive, IFNγ-positive cells in UR ([1]; donor *24-12): 0.18%"
SYQLLLDSL,x,x,x,x,x,x,x,x,x,x,
